# According to US7985753B2, “Substituted pyrazolo[1,5-A]pyrimidines as metabotropic glutamate receptor modulators” (MERZ PHARMA GmbH & Co. KGaA, priority 2006, dated 2011):
# Molecular target: T1, transmembrane allosteric modulatory sites of mGluR5 receptors in cortical membranes (Rattus norvegicus, UniProt P31424)
# T1 construct: from tissue; host or cells: rat brain cortex membranes
# Assay: [^3H]-MPEP binding assay in rat cortical membranes
# Details: read-out: mGluR5_M_MPEP_r_CTX_IC50
# Experimental: Male Sprague-Dawley rats (200-250 g) are decapitated and their brains are removed rapidly. The cortex is dissected and homogenized in 20 volumes of ice-cold 0.32 M sucrose using a glass-Teflon homogenizer. The homogenate is centrifuged at 1000×g for 10 minutes. The pellet is discarded and the supernatant centrifuged at 20,000×g for 20 minutes. The resulting pellet is re-suspended in 20 volumes of distilled water and centrifuged for 20 minutes at 8000×g. Then the supernatant and the buffy coat are centrifuged at 48,000×g for 20 minutes in the presence of 50 mM Tris-HCl, pH 8.0. The pellet is then re-suspended and centrifuged two to three more times at 48,000×g for 20 minutes in the presence of 50 mM Tris-HCl, pH 8.0. All centrifugation steps are carried out at 4° C. After resuspension in 5 volumes of 50 mM Tris-HCl, pH 8.0 the membrane suspension is frozen rapidly at −80° C.
# On the day of assay the membranes are thawed and washed four times by resuspension in 50 mM Tris-HCl, pH 8.0 and centrifugation at 48,000×g for 20 minutes and finally re-suspended in 50 mM Tris-HCl, pH 7.4. The amount of protein in the final membrane preparation (500-700 μg/ml) is determined according to the method of Lowry (Lowry O. H. et al. 1951. J. Biol. Chem. 193, 256-275).
# Alternatively, assays are performed with [^3H]-MMPEP (2-(3-methoxyphenylethynyl)-6-methylpyridine hydrochloride) as radioligand. The incubations are continued at room temperature for 60 minutes (equilibrium is achieved under the conditions used). […] Incubations are terminated using a Millipore filter system. The samples are rinsed twice with 4 ml of ice-cold assay buffer over glass fibre filters (Schleicher & Schuell, Germany) under a constant vacuum. Following separation and rinse, the filters are placed into scintillation liquid (5 ml Ultima Gold, Perkin Elmer, Germany) and radioactivity retained on the filters is determined with a conventional liquid scintillation counter (Canberra Packard, Germany).
# T1 sequence (P31424 21-1203): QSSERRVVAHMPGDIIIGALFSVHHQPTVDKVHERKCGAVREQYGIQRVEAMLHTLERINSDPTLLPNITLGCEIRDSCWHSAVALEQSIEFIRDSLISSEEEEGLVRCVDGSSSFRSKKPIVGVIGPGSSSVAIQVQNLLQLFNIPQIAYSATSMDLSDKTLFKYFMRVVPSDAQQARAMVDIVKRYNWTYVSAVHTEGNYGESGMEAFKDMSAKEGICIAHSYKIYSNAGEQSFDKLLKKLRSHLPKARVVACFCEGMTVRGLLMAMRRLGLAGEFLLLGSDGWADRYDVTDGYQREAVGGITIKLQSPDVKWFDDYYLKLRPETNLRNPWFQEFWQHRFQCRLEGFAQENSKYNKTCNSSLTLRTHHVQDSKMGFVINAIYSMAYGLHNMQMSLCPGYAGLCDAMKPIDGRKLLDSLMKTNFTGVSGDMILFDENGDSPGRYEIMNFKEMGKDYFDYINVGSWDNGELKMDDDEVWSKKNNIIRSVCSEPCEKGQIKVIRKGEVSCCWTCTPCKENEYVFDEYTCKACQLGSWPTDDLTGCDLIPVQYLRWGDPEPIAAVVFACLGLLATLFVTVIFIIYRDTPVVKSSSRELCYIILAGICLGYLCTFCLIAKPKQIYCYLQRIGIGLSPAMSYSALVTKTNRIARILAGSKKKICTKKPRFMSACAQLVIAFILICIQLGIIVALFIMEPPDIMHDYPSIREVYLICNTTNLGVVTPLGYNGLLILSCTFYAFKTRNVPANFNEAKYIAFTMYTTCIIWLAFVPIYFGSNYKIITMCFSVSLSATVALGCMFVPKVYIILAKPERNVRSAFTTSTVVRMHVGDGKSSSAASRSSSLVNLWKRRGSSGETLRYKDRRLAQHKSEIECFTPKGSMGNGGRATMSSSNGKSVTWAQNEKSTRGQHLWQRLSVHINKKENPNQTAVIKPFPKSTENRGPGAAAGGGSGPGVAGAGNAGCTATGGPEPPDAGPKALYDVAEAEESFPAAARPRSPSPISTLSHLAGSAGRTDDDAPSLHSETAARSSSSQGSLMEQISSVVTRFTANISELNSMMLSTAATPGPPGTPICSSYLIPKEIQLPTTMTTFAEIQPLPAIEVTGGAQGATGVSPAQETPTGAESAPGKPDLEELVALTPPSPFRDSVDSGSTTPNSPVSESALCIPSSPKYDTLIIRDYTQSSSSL
row,Structure (SMILES),IC50 [nM]
1,"CC1c2cc(F)ccc2CCN1C(=O)c1cc2ncc(Br)cn2n1 (centres unmarked) [drawing 454, (6-Bromo-pyrazolo[1,5-a]pyrimidin-2-yl)-(7-fluoro-1-methyl-3,4-dihydro-1H-isoquinolin-2-yl)-methanone]",30
2,"CC1c2cccc(F)c2CCN1C(=O)c1cc2ncc(Br)cn2n1 (centres unmarked) [drawing 455, (6-Bromo-pyrazolo[1,5-a]pyrimidin-2-yl)-(5-fluoro-1-methyl-3,4-dihydro-1H-isoquinolin-2-yl)-methanone]",10
3,"COc1ccc2c(c1)CCN(C(=O)c1cc3ncc(Cl)cn3n1)C2C (centres unmarked) [drawing 460, (6-Chloro-pyrazolo[1,5-a]pyrimidin-2-yl)-(6-methoxy-1-methyl-3,4-dihydro-1H-isoquinolin-2-yl)-methanone]",27
4,"CC1c2ccc(F)cc2CCN1C(=O)c1cc2ncc(Cl)cn2n1 (centres unmarked) [drawing 456, (6-Chloro-pyrazolo[1,5-a]pyrimidin-2-yl)-(6-fluoro-1-methyl-3,4-dihydro-1H-isoquinolin-2-yl)-methanone]",40
5,"COc1ccc2c(c1)CCN(C(=O)c1cc3ncc(Br)cn3n1)C2C (centres unmarked) [drawing 459, (6-Bromo-pyrazolo[1,5-a]pyrimidin-2-yl)-(6-methoxy-1-methyl-3,4-dihydro-1H-isoquinolin-2-yl)-methanone]",20
6,"CC1c2cccc(Br)c2CCN1C(=O)c1cc2ncc(Cl)cn2n1 (centres unmarked) [drawing 461, (5-Bromo-1-methyl-3,4-dihydro-1H-isoquinolin-2-yl)-(6-chloro-pyrazolo[1,5-a]pyrimidin-2-yl)-methanone]",21
7,"CC1CN(C(=O)c2cc3ncc(Cl)cn3n2)C(C)c2ccccc21 (centres unmarked) [drawing 457, (6-Chloro-pyrazolo[1,5-a]pyrimidin-2-yl)-(1,4-dimethyl-3,4-dihydro-1H-isoquinolin-2-yl)-methanone]",118
8,"O=C(c1cc2ncc(Cl)cn2n1)N1CCc2ncc(Br)cc2C1 [drawing 462, (3-Bromo-7,8-dihydro-5H-[1,6]naphthyridin-6-yl)-(6-chloro-pyrazolo[1,5-a]pyrimidin-2-yl)-methanone]",107
9,"COc1cc2c(cc1O)CCN(C(=O)c1cc3ncc(Br)cn3n1)C2C (centres unmarked) [drawing 453, 2-[(6-bromopyrazolo[1,5-a]pyrimidin-2-yl)carbonyl]-7-methoxy-1-methyl-1,2,3,4-tetrahydro-6-isoquinolinol]",60

# Molecular target: metabotropic glutamate receptor (mGluR5) (Homo sapiens, UniProt P41594)
# Sequence (P41594 21-1212): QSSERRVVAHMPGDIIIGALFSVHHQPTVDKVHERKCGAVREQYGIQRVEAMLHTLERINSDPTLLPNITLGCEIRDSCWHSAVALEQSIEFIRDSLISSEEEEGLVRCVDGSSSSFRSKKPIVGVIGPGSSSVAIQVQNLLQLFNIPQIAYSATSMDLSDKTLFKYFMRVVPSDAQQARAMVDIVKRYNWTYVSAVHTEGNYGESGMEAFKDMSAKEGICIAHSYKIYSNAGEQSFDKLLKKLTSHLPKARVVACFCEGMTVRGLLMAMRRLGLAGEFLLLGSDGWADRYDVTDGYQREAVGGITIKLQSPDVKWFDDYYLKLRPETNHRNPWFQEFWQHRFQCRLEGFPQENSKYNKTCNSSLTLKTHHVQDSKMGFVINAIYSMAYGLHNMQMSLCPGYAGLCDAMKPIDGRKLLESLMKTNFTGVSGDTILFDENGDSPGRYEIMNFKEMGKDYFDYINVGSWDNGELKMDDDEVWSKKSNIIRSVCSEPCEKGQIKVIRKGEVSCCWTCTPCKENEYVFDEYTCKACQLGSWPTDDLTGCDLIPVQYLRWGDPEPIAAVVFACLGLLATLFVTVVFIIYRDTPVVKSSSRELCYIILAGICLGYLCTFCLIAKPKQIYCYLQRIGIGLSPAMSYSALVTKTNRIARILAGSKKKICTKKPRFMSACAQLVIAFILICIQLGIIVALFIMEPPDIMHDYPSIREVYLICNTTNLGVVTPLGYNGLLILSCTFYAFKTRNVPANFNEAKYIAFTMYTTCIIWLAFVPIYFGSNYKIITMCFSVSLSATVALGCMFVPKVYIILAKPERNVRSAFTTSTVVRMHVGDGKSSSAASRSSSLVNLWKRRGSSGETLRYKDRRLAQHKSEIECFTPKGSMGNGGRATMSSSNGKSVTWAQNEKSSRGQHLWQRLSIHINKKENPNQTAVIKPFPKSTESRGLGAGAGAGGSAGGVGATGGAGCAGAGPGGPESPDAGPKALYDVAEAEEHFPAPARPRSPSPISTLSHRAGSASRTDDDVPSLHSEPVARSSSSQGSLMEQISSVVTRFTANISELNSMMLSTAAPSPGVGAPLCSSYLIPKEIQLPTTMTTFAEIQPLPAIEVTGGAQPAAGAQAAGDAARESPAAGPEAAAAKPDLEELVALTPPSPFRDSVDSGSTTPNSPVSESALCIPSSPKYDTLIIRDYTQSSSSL
# Assay: Activity as mGluR5 modulator, test not specified
# Details: not given
row,Structure (SMILES),activity as metabotropic glutamate receptor (mGluR5) modulator
1,"O=C(c1cc2ncc(Br)cn2n1)N1CCOCC1 [Example B310, (6-Bromopyrazolo[1,5-a]pyrimidin-2-yl)-morpholin-4-yl-methanone]",no particular activity
2,"O=C(c1cc2ncc(Br)cn2n1)N1CCCCC1 [Example B308, (6-Bromopyrazolo[1,5-a]pyrimidin-2-yl)-piperidin-1-yl-methanone]",no particular activity
